In patent publication US11034654B2, “2,3-dihydroisoindole-1-carboxamides useful as ROR-gamma modulators” (AstraZeneca AB, priority 2017, dated 2021):

Legend:
[1] = target: T1, RORγ ligand binding domain (Homo sapiens, UniProt P51449); assay: RORγ radioligand competition binding assay (SPA); settings: competition with tritiated 2-(4-(ethylsulfonyl)phenyl)-N-(4-(2-(methoxymethyl)phenyl)thiophen-2-yl)acetamide (25 nM), hRORγ LBD
Source text: RORγ Radioligand Competition Binding Assay The aim of this assay is to identify compounds which bind to the RORγ ligand binding domain, by competing with tritiated 2-(4-(ethylsulfonyl)phenyl)-N-(4-(2-(methoxymethyl)phenyl)thiophen-2-yl)acetamide. Human RORγ (Ligand Binding Domain (RORγ LBD) was expressed in E. coli (BL21DE3 Star) as a fusion protein: N-6×HN-Avi-GST-TCS-hRORγ LBD (S258-K518) subcloned into pET24a(+). The LBD (258-518) is underlined in the protein sequence: The scintillation proximity assay (SPA) was run in white polystyrene flat-bottom 384-well plates (Greiner, cat. No. 781075). Assays were carried out in 40 μl reaction volumes. Various concentrations of test ligands in 0.4 microlitres of DMSO were added to assay plates using an acoustic liquid dispenser. 4 nM purified N-(HN)6-GST-TCS-hRORγ (258-518) was mixed with 40 micrograms Yttrium oxide (YOx) glutathione SPA imaging beads in assay buffer (20 mM Tris, 150 mM NaCl, 10% Glycerol, 0.25% CHAPS, 1 mM TCEP) prior to adding 30 microlitres to test ligands. Assay plates were incubated for one hour at room temperature before adding 10 microlitres tritiated 2-(4-(ethylsulfonyl)phenyl)-N-(4-(2-(methoxymethyl)phenyl)thiophen-2-yl)acetamide to test plates in assay buffer (final concentration, 25 nM). Test plates were incubated for 16 hours and read using a LEADseeker Multimodality imaging instrument. The raw data was analysed and IC50 and Ki values for the compounds were calculated using Genedata Screener software. Raw data was transformed to % effect using equation 1: Compound % effect=100*[(X−min)/(max−min)], where X represents the normalized value for the compound based on the Min (vehicle) and Max (reference compound) inhibition controls. The concentration of test ligand that inhibited radioligand binding by 50% (i.e., the IC50) was calculated by plotting the % effect versus test ligand concentration and fitting the data using the Genedata Screener Smart fit algorithm. Ki is calculated from the IC50 value using the equation Ki=IC50/1+[L]/Kd) where [L]=25 nmol/L and Kd=17 nmol/L

[2] = test system: human TH17 cells; assay: Inhibition of IL-17 release from human TH17 cells; type: cell-based; settings: 96 h; isolated human TH17 cells cultured 4 days, IL-17A in supernatant by HTRF; read-out: pIC50 IL-17 release (converted)
Source text: Inhibition of IL-17 Release from Human TH17 Cells
This test is designed to screen compounds for their inhibitory effect on the release of IL-17 from isolated and cultured human TH17 cells.
Peripheral blood mononuclear cells (PBMC) were isolated from heparin treated human whole blood from healthy donors by density gradient centrifugation. TH17 cells (CD4+CXCR3−CCR6+) were enriched using a human TH17 Cell Enrichment Kit (Stemcell Technologies) according to the manufacturer's protocol. The isolated TH17 cells were activated with aCD3aCD28 beads (MACS Miltenyi) and cultured in X-Vivo15 medium (Lonza) supplemented with L-glutamine, β-mercaptoethanol and a cytokine cocktail consisting of; IL-2, IL-23, IL-1β, IL-6, TGF-β. Cells were seeded at 8000 cells/well in a 384-plate (Corning, #3707) in the presence of compounds or DMSO and cultured for 4 days (37° C., 5% CO2). On day 4 supernatants were collected and IL-17A was measured using a Human IL-17 HTRF Assay kit (Cisbio Bioassays) according to the manufacturer's protocol. The IC50 values for the tested compounds was calculated using Genedata Screener® software (Genedata) using the following calculation method; Compound % effect=100*[(X−min)/(max−min)], where X represents the normalized value for the compound based on the Min (DMSO) and Max (compound 3-(1,3-benzodioxol-5-yl)-1-(3,5-dimethylpiperidin-1-yl)-3-(2-hydroxy-4,6-dimethoxyphenyl)propan-1-one at 10 μM, described in J. R. Hu et al. ACS Med. Chem. Lett. 2013, 4, 79-84) inhibition controls. Results

[3] = target: T1, RORγ ligand binding domain; assay: RORγ co-factor recruitment assay (FRET); type: biochemical; design: made in house; host or cells: E. coli BL21DE3 Star; settings: inhibition of recruitment of SRC-1 peptide (NCOA1_677-700) to hRORγ LBD, HTRF read-out
Source text: RORγ Co-Factor Recruitment Assay A high throughput coactivator binding assay for the identification of inverse agonists of the recruitment of peptide SRC-1 (NCOA1_677-_700) to the RORγ ligand binding domain was established. The ligand binding domain (LBD) of human RORγ was expressed in E. coli (BL21DE3 Star) as a fusion protein: N-6×HN-MBP-Avi-TCS-hRORγLBD(P260-K518) subcloned into pET24a(+). The LBD (P260-K518) is underlined in the protein sequence: The assay was run in black 384 well plates (Greiner cat no: 784900). Various concentrations of test ligands in 0.1 microlitres DMSO were dispensed to assay plates using an Echo acoustic dispenser. Two pre-mixes were prepared and incubated for 1 h at room temp in the dark. Pre-mix 1 comprised 100 nM Protein (Biotinylated HN-Avi-MBP-TCS-hRORγ (258-518)) and 60 nM Streptavidin APC in assay buffer, 50 mM MOPS pH7.4, 50 mM KF, 0.003% (w/v) CHAPS, 10 mM DTT and 0.01% (w/v) BSA and pre-mix 2 comprised 160 nM biotinylated SRC-1 peptide (NCOA1-677-700) and 20 nM Europium-W8044 labelled Streptavidin in assay buffer. Five microlitres of pre-mix 2 was dispensed to assay plates containing 0.1 microlitres of test compound and was incubated for 15 min prior to adding five microlitres of pre-mix 1. Plates were incubated at rt for 1 hour in the dark, prior to reading in a Pherastar multi-mode plate reader using HTRF filter set (ex 320, em 612 and 665). The FRET signal at 665 nm was divided by the signal at 612 nm and multiplied by 10,000 to generate a signal ratio value for each well. The raw data was transformed to % effect using the equation: Compound % effect=100*[(X−min)/(max−min)], where X represents the normalized value for the compound based on the Min (vehicle) and Max (reference compound) inhibition control. The concentration of test ligand that inhibited the activity by 50% (i.e., the IC50) was calculated by plotting the % effect versus test ligand concentration and fitting the data using the Genedata Screener Smart fit algorithm.

SMILES | IC50 [1] [nM] | IC50 [2] [nM] | IC50 [3] [nM]
CC(=O)N1Cc2cc(S(C)(=O)=O)ccc2C1C(=O)Nc1ccc(C(CC#N)(C(F)(F)F)C(F)(F)F)cc1 (stereo not drawn) [Example 36, 2-Acetyl-N-{4-[2-(cyanomethyl)-1,1,1,3,3,3-hexafluoropropan-2-yl]phenyl}-5-(methylsulfonyl)-2,3-dihydro-1H-isoindole-1-carboxamide] | 158 | 63.1 | 100
CC(=O)N1Cc2cc(S(C)(=O)=O)ccc2C1C(=O)Nc1ccc(C(c2nnn(C)n2)(C(F)(F)F)C(F)(F)F)cc1 (stereo not drawn) [Example 30, 2-Acetyl-N-{4-[1,1,1,3,3,3-hexafluoro-2-(2-methyl-2H-tetrazol-5-yl)propan-2-yl]phenyl}-5-(methylsulfonyl)-2,3-dihydro-1H-isoindole-1-carboxamide] | 39.8 | 25.1 | 126
CC(=O)N1Cc2cc(S(C)(=O)=O)ccc2C1C(=O)Nc1ccc(C(CCO)(C(F)(F)F)C(F)(F)F)cc1 (stereo not drawn) [Example 33, 2-Acetyl-5-(methylsulfonyl)-N-{4-[1,1,1-trifluoro-4-hydroxy-2-(trifluoromethyl)butan-2-yl]phenyl}-2,3-dihydro-1H-isoindole-1-carboxamide] | 251 | 200 | 158
CC(=O)N1Cc2cc(S(C)(=O)=O)ccc2C1C(=O)Nc1ccc(C(NCCCS(C)(=O)=O)(C(F)(F)F)C(F)(F)F)cc1 (stereo not drawn) [Example 22, 2-Acetyl-N-[4-(1,1,1,3,3,3-hexafluoro-2-{[3-(methylsulfonyl)propyl]amino}propan-2-yl)phenyl]-5-(methylsulfonyl)-2,3-dihydro-1H-isoindole-1-carboxamide] | 1000 | 794 | 1000
COC(=O)CC(c1ccc(NC(=O)C2NCc3cc(S(C)(=O)=O)ccc32)cc1)(C(F)(F)F)C(F)(F)F (stereo not drawn) [Example 31, Methyl 4,4,4-trifluoro-3-[4-[(5-methylsulfonylisoindoline-1-carbonyl)amino]phenyl]-3-(trifluoromethyl)butanoate] | 794 | 200 | 200
CC(=O)N1Cc2cc(S(C)(=O)=O)ccc2C1C(=O)Nc1ccc(C(CC(=O)NC2CC2)(C(F)(F)F)C(F)(F)F)cc1 (stereo not drawn) [Example 38, 2-Acetyl-N-{4-[4-(cyclopropylamino)-1,1,1-trifluoro-4-oxo-2-(trifluoromethyl)butan-2-yl]phenyl}-5-(methylsulfonyl)-2,3-dihydro-1H-isoindole-1-carboxamide] | 794 | 1000 | 631
CC(=O)N1Cc2cc(S(C)(=O)=O)ccc2C1C(=O)Nc1ccc(C(CC(=O)NCCF)(C(F)(F)F)C(F)(F)F)cc1 (stereo not drawn) [Example 41, 2-Acetyl-5-(methylsulfonyl)-N-(4-{1,1,1-trifluoro-4-[(2-fluoroethyl)amino]-4-oxo-2-(trifluoromethyl)butan-2-yl}phenyl)-2,3-dihydro-1H-isoindole-1-carboxamide] | 794 | > 3160 | 316

Compounds with a lower IC50 [1], results first:

IC50 [1] [nM] | IC50 [2] [nM] | IC50 [3] [nM] | SMILES
15.8 | 25.1 | 100 | CCOC(=O)CC(c1ccc(NC(=O)C2c3ccc(S(C)(=O)=O)cc3CN2C(C)=O)cc1)(C(F)(F)F)C(F)(F)F (stereo not drawn) [Example 37, Ethyl 3-[4-({[2-acetyl-5-(methylsulfonyl)-2,3-dihydro-1H-isoindol-1-yl]carbonyl}amino)phenyl]-4,4,4-trifluoro-3-(trifluoromethyl)butanoate]
12.6 | 10 | 50.1 | CS(=O)(=O)c1ccc2c(c1)CN(C(=O)CO)C2C(=O)Nc1ccc(C(C#N)(C(F)(F)F)C(F)(F)F)cc1 (stereo not drawn) [Example 5, N-[4-(2-Cyano-1,1,1,3,3,3-hexafluoropropan-2-yl)phenyl]-2-(hydroxyacetyl)-5-(methylsulfonyl)-2,3-dihydro-1H-isoindole-1-carboxamide]
6.31 | 5.01 | 63.1 | CC(=O)N1Cc2cc(S(=O)(=O)CC3CC3)ccc2C1C(=O)Nc1ccc(C(C#N)(C(F)(F)F)C(F)(F)F)cc1 (stereo not drawn) [Example 13, 2-Acetyl-N-[4-(2-cyano-1,1,1,3,3,3-hexafluoropropan-2-yl)phenyl]-5-[(cyclopropylmethyl)sulfonyl]-2,3-dihydro-1H-isoindole-1-carboxamide]
5.01 | 2.51 | 39.8 | CCS(=O)(=O)c1ccc2c(c1)CN(C(C)=O)C2C(=O)Nc1ccc(C(C#N)(C(F)(F)F)C(F)(F)F)cc1 (stereo not drawn) [Example 14, 2-Acetyl-N-[4-(2-cyano-1,1,1,3,3,3-hexafluoropropan-2-yl)phenyl]-5-(ethylsulfonyl)-2,3-dihydro-1H-isoindole-1-carboxamide]
15.8 | 10 | 126 | CC(=O)N1Cc2cc(S(C)(=O)=O)ccc2C1C(=O)Nc1ccc(C(C#N)(C(F)(F)F)C(F)(F)F)cc1 (stereo not drawn) [Example 2, 2-Acetyl-N-[4-(2-cyano-1,1,1,3,3,3-hexafluoropropan-2-yl)phenyl]-5-(methylsulfonyl)-2,3-dihydro-1H-isoindole-1-carboxamide]
7.94 | 25.1 | 100 | N#CC(c1ccc(NC(=O)C2NCc3cc(S(=O)(=O)CC4CC4)ccc32)cc1)(C(F)(F)F)C(F)(F)F (stereo not drawn) [Example 12, N-[4-(2-Cyano-1,1,1,3,3,3-hexafluoropropan-2-yl)phenyl]-5-[(cyclopropylmethyl)sulfonyl]-2,3-dihydro-1H-isoindole-1-carboxamide]
20 | 15.8 | 39.8 | CC(=O)N1Cc2cc(S(C)(=O)=O)ccc2C1C(=O)Nc1ccc(C(N2CCOCC2)(C(F)(F)F)C(F)(F)F)cc1 (stereo not drawn) [Example 23, 2-Acetyl-N-{4-[1,1,1,3,3,3-hexafluoro-2-(morpholin-4-yl)propan-2-yl]phenyl}-5-(methylsulfonyl)-2,3-dihydro-1H-isoindole-1-carboxamide]
